The text below walks through data of patent US20220175692A1, “PRESYNAPTIC GLUTAMATE RELEASE INHIBITORS FOR DECREASING NMDA ANTAGONIST SIDE EFFECTS IN ANESTHESIA” (THE CLEVELAND CLINIC FOUNDATION, priority 2020, published 2022).

For series [1], the system named is ketamine-induced psychological disturbances in adults scheduled for elective noncardiac surgery. The series can be described thus: Pilot randomized, double-blind trial of lamotrigine before surgery with ketamine anesthesia. Format: in vivo, human. The text has this: We report the finding of a pilot randomized and double-blind trial in which we tested the hypothesis that a single 300-mg dose of lamotrigine given a few hours before surgery reduces ketamine-induced psychological disturbances. We enrolled 46 adults (23 Lamotrigine, 23 placebo) 18-65 years who were scheduled for elective noncardiac surgery with general anesthesia with a planned overnight stay at Cleveland Clinic main campus between April 2019 and October 2019. All included patients provided written informed consent during their preoperative clinic visit. The trial was approved by Cleveland Clinic Institutional Review Board and was registered at clinicaltrails.gov [NCT03831854; PI Kamal Maheshwari; February 2019]. It was a priori defined as a pilot trial.
All patients received ketamine 1 mg/kg bolus at induction of anesthesia followed by a 5-μg/kg/min infusion which was stopped at the end of surgery. Anesthesia generally included propofol, a muscle relaxant, fentanyl, and sevoflurane. The primary outcome was presence of the psychologic disturbances measured 30-90 min after admission to the post-anesthesia care unit. We evaluated four key items of the Brief Psychiatric Rating Scale corresponding to positive symptoms of schizophrenia: conceptual disorganization, hallucinatory behavior, suspiciousness, and unusual thought content. Each symptom was rated 1-7 (1=not present, 2=very mild, 3=mild, 4=moderate, 5=moderately severe, 6=severe, 7=extremely severe). Secondary outcomes were opioid use, pain, and postoperative nausea or vomiting in the post-anesthesia care unit.

The subject of series [2] is ketamine-induced perceptual abnormalities in healthy subjects. The conditions noted are these: 300 mg oral lamotrigine; cited from earlier work.
Series [3] relates to psychologic disturbances associated with perioperative ketamine use. The conditions noted are these: reported range across studies (Avidan et al. 2017); cited from earlier work.

As to `Nc1nnc(-c2cccc(Cl)c2Cl)c(N)n1` [lamotrigine], the “pain scores, difference in means lamotrigine vs placebo” value in series [1] (98.3% CI −1.7, 2.6, P=0.58) is 0.5. Moreover, the “Opioid use, median difference lamotrigine vs placebo” value in series [1] (98.3% CI −9.5, 5.0, P=0.63) was −2.3. Further, the “pain scores, mean±standard deviation” value in series [1] (in the post-anesthesia care unit, lamotrigine 300 mg patients) is 4.9±3.1. For the same molecule, the “patients who experienced nausea or vomiting” value in series [1] (in vivo) is recorded as “Five”. Also, the “patients with psychologic disturbances (four key items of the Brief Psychiatric Rating Scale)” value in series [1] (single 300-mg dose of lamotrigine a few hours before surgery, ketamine 1 mg/kg bolus then 5-μg/kg/min infusion, measured 30-90 min after admission to post-anesthesia care unit, n=23) is recorded as “No patients”. In addition, the “effect on ketamine-induced perceptual abnormalities” value in series [2] is given as “significantly decreased”.

As to `CNC1(c2ccccc2Cl)CCCCC1=O` (centres unmarked) [ketamine], the “patients who displayed psychologic disturbances” value in series [1] (all trial patients (lamotrigine and placebo groups), moderate dose of ketamine: 1 mg/kg bolus then 5-μg/kg/min infusion) is reported as 6%. The “incidence of psychologic disturbances associated with perioperative ketamine use” value in series [3] is reported as 7% to 27.
